pEC50: −log10 of the molar value. “Also recorded” adds a separate entry of the source.
Columns and labels:
[1] = target: T1, HCN1 channels (Mus musculus, UniProt O88704); assay: Two electrode voltage clamp of HCN1 channels expressed in Xenopus oocytes (shift in V1/2); assay type: cell-based; settings: for potency as HCN1 inverse agonist compared with propofol: relative to propofol (2,6-di-iso-propylphenol); for offset of the 2,6-DTBP Hill fit of the V1/2 shift: right shift of the concentration-response relative to 2,6-DTBP, HCN1; for efficacy apparent in the concentration response (Hill fit): ΔV1/2 of HCN1, 2,6 di-alkylbenzene analogues; for inhibition of HCN1 channel gating: 20 min pre-incubation, 20 mM HPβCD + DMSO, compared with free 2,6-DTBP
T1 sequence (O88704 74-390 limits assumed): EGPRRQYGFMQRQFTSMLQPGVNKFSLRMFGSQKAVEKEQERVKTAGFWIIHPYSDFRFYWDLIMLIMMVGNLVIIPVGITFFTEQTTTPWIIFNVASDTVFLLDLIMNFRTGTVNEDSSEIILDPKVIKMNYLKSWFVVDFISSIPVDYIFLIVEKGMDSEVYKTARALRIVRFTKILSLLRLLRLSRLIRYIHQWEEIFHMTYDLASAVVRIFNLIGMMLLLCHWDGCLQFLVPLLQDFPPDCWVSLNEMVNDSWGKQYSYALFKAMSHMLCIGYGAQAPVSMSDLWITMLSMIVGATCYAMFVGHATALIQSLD

[2] = tested on: chronic constriction injury model of peripheral neuropathic pain; settings: bolus administration; cited from earlier work
[3] = tested on: HCN1 vs. HCN2-4; assay: Effect on V1/2 of HCN1-4 channels (isoform selectivity); assay type: cell-based
[4] = tested on: mechanical and thermal hyperalgesia after nerve ligation; assay: Nerve ligation model: paw withdrawal probability and hindpaw withdrawal latency after cumulative i.p. dosing
[5] = tested on: normal nociception, locomotor activity, motor coordination, muscle strength; settings: anti-hyperalgesic dose, cited from earlier work
[6] = Solubilisation in DMSO and dispersion into aqueous buffer; assay type: physicochemical
[7] = Whole blood concentration after oral gavage, LC-MS/MS; assay type: in vivo; settings: rats, oral gavage in peanut oil, 0.58 mmole/kg, over 30 hours
Procedure: FIG. 29 is a graph showing the concentration of BP4L-18:1:1 in whole blood after administration to rats. Eight adult rats were gavaged with either 0.5 mL of peanut oil (n=4) or 0.5 mL of peanut oil containing 0.58 mmole/kg BP4L-18:1:1 (n=4). Blood samples were obtained at the indicated times. Following extraction using equi-volumes of acetonitrile, precipitation and filtration, blood concentrations of BP4L-18:1:1 were determined using LC-MS/MS. Dotted black lines indicate the concentrations of BP4L-18:1:1 for individual animals that received drug, the solid black line indicates the mean±SEM for the plus-drug cohort. Dotted and solid grey lines are, respectively, the concentrations of BP4L-18:1:1 detected in individual peanut oil-alone animals and the mean±SEM thereof. Grey lines superimpose and are indistinguishable from the time axis.
LCMS/MS was performed on an Agilent 1290 Infinity II UPLC system and Agilent 6495 Triple Quadrupole mass spectrometer. […] Quantitation was performed using multiple reaction monitoring in positive electrospray ionization mode using the transition 517.4→233.1 and a collision energy of 42. […]
Pharmacokinetic properties of exemplary compound BP4L-18:1:1 (compound 6) were evaluated in rats (FIG. 29). In particular, concentration of BP4L-18:1:1 in whole blood samples were determined over the course of 30 hours after oral administration.

[8] = tested on: animal models of neuropathic pain; settings: in vivo; cited from earlier work
[9] = simultaneous fit, absence and presence of 3 μM 2,6-DTBP

CCC(C)c1ccc(O)c(C(C)CC)c1 (stereo not drawn) [2,4-DSBP, 2,4-di-sec-butylphenol]
potency as HCN1 inverse agonist compared with propofol [1]: less potent | offset of the 2,6-DTBP Hill fit of the V1/2 shift [1]: 23 fold

CC(C)(C)c1ccc(O)c(C(C)(C)C)c1 [2,4-DTBP, 2,4-di-tert-butylphenol]
potency as HCN1 inverse agonist compared with propofol [1]: more potent | offset of the 2,6-DTBP Hill fit of the V1/2 shift [1]: 2 fold

CCc1cccc(CC)c1O [2,6-DEP]
efficacy apparent in the concentration response (Hill fit) [1]: partial

CC(C)C1CCCC(C(C)C)C1O (stereo not drawn) [2,6-DIPCH]
efficacy apparent in the concentration response (Hill fit) [1]: partial

CC(C)c1cccc(C(C)C)c1O [2,6-DIPP, 2,6-di-iso-propylphenol]
efficacy apparent in the concentration response (Hill fit) [1]: full

CCC(C)c1cccc(C(C)CC)c1O (stereo not drawn) [2,6-DSBP, 2,6-di-sec-butylphenol]
pEC50 [1]: 3.43 | potency as HCN1 inverse agonist compared with propofol [1]: less potent | offset of the 2,6-DTBP Hill fit of the V1/2 shift [1]: 15 fold | JcI (association constant, common site model N=4) [1, 9]: 3,696±2,948 | JoI (association constant, common site model N=4) [1, 9]: 881±1,801 | inverse agonist potency and efficacy ([1]; ΔV1/2 in absence and presence of 3 μM 2,6-DTBP): low potency, high efficacy, inverse agonist | efficacy apparent in the concentration response (Hill fit) [1]: partial

CC(C)(C)C1CCCC(C(C)(C)C)C1O (stereo not drawn) [2,6-DTBCH]
efficacy apparent in the concentration response (Hill fit) [1]: partial

CC(C)(C)c1cccc(C(C)(C)C)c1O [2,6-DTBP, 2,6-di-tert-butylphenol]
reversal of mechanical hypersensitivity [2]: ~45% | reversal of thermal hypersensitivity [2]: complete reversal | selectivity for HCN1 vs. HCN2-4 [3]: retains propofol's selectivity for HCN1 vs. HCN2-4 | mechanical and thermal hyperalgesia with respect to mechanical and thermal nociception [4]: Selectively Suppresses Mechanical and Thermal Hyperalgesia | thermal hyperalgesia (HPWL) ([4]; heat source intensity 15%): ameliorates thermal hyperalgesia | thermal nociception (HPWL) ([4]; heat source intensity 30%): without overt effect | potency as HCN1 inverse agonist compared with propofol [1]: more potent | efficacy apparent in the concentration response (Hill fit) [1]: full | normal nociception (pin prick test) [5]: does not disrupt normal nociception | locomotor activity, motor coordination and muscle strength ([5]; open field, rotarod, horizontal wire): nor does it perturb

CC(C)c1cc(N)cc(C(C)C)c1O [4-AP]
HCN1 antagonism by 4-substituted 2,6-DIPPs [1]: effective

CC(C)c1cc(C(C)(C)C)cc(C(C)C)c1O [4-TBP]
HCN1 antagonism by 4-substituted 2,6-DIPPs [1]: fully effective

CC(C)c1cc([N+](C)(C)C)cc(C(C)C)c1O [4-TMAP]
HCN1 antagonism by 4-substituted 2,6-DIPPs [1]: ineffective

CC(Cl)CCCCCCCCC(=O)c1cc(C(C)(C)C)c(O)c(C(C)(C)C)c1 (stereo not drawn) [BP4C-11:0:1]
dispersion into an aqueous buffer [6]: reasonably easy to disperse | HCN1 antagonism of tethered, unanchored 2,6-DTBP ([1]; 10 and 100 μM, applied from the outside): 4-adduct tolerance is retained

CC(C)(C)c1cc(C(=O)CCCCCCCCC(O)CO)cc(C(C)(C)C)c1O (stereo not drawn) [BP4L-10:0:1]
dispersion into an aqueous buffer [6]: reasonably easy to disperse | inhibition of HCN1 channel gating [1]: largely ineffective

CC(C)(C)c1cc(C(=O)CCCCCCCC/C=C/CCCCCCC(O)CO)cc(C(C)(C)C)c1O (stereo not drawn) [BP4L-18:1:1, (E)-1-(3,5-di-tert-butyl-4-hydroxyphenyl)-18,19-dihydroxynonadec-10-en-1-one]
inhibition of HCN1 channel gating [1]: concentration-dependent; also recorded: effectively inhibits channel gating with a potency and efficacy indistinguishable from free 2,6-DT BP | absorption / bioavailability from whole blood concentration [7]: absorbed demonstrating bioavailability

CCN(c1ccccc1)c1cc(=NC)n(C)c(C)n1.Cl [ZD7288]
anti-hyperalgesia [8]: significant anti-hyperalgesia

COc1cc2c(cc1OC)CC(=O)N(CCCN(C)C[C@H]1Cc3cc(OC)c(OC)cc31)CC2 [ivabradine]
anti-hyperalgesia [8]: significant anti-hyperalgesia
